The results in this text go back to ChEMBL document CHEMBL1201862, “PubChem BioAssay data set” (2004).

Among the test systems are SNB-78; OVCAR-3; HT-29; SR; SNB-75; SK-MEL-2; DMS-114; SF-539; RXF 393; M19-MEL; SF-268; UACC-257; SK-MEL-5; NCI-H23; NCI-H460; HCT-15; OVCAR-5; RPMI-8226; CAKI-1; NCI/ADR-RES.
What all share (experiment): DTP human tumour cell line panel, 48 h

SMILES strings stand for the structures.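 In this assay, cells in 96-well plates receive the compound at five concentrations for 48 hours. Endpoints are linearly interpolated between the surrounding concentrations. GI50 = concentration required for 50% inhibition of growth.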 Active and inactive are the calls of the source. Cut-off read from the data, not from the text of the source: active = GI50 up to about 1.1 µM and inactive = higher. Some results are limits rather than exact numbers.

In the case of `Nc1nc(SCCNC(=O)CCc2ccc(O)c(I)c2)nc2c1ncn2C1OC(CO)C(O)C1O` (configuration not stated), the GI50 with SNB-78, with OVCAR-3, in the experiment on HT-29, in the experiment with SR, in the experiment on SNB-75 and with SK-MEL-2 was > 100 µM (inactive) each time. The GI50 in the experiment on DMS-114, in the experiment on SF-539, in the experiment on RXF 393, in the experiment with M19-MEL, in the experiment with SF-268 and in the experiment on UACC-257 was > 100 µM (inactive) each time. The GI50 is > 100 µM (inactive) in the experiment on SK-MEL-5; > 100 µM (inactive) in the experiment on NCI-H23; > 100 µM (inactive) in the experiment with NCI-H460; > 100 µM in the experiment with HCT-15; > 100 µM (inactive) in the experiment with OVCAR-5.
On to `N=C(N)Nc1ncccc1[N+](=O)[O-]`, for which the GI50 was > 95.1 µM (inactive) in the experiment with RPMI-8226; > 100 µM (inactive) with SNB-78; 25.1 µM (inactive) in the experiment with OVCAR-3; 40.6 µM (inactive) in the experiment on HT-29; > 100 µM (inactive) with SNB-75; > 100 µM (inactive) in the experiment on SK-MEL-2. The GI50 with CAKI-1 is > 100 µM (inactive); in the experiment on DMS-114, 15.8 µM (inactive); in the experiment on SF-539 it was 53.6 µM (inactive); with RXF 393 it was > 100 µM (inactive); in the experiment with SF-268 it was 74.6 µM (inactive); with UACC-257, 23.6 µM (inactive). For the same compound, the GI50 was 38.9 µM (inactive) in the experiment with SK-MEL-5; > 100 µM (inactive) with NCI-H23; 51.8 µM (inactive) in the experiment on NCI-H460; > 100 µM (inactive) in the experiment on NCI/ADR-RES; 82.2 µM in the experiment on HCT-15; > 100 µM (inactive) with OVCAR-5.
Consider `C/N=c1/ssc(=S)n1C(C)C`, for which the GI50 in the experiment on RPMI-8226 was 11.6 µM (inactive); in the experiment on OVCAR-3, 12.4 µM (inactive); with HT-29 it was 3.3 µM (inactive); in the experiment with SNB-75, 1.11 µM (active); in the experiment on SK-MEL-2, 42 µM (inactive); in the experiment on CAKI-1 it was 21.7 µM (inactive). The GI50 is 3.13 µM (inactive) with DMS-114; 25.8 µM (inactive) in the experiment with SF-539; 7.5 µM (inactive) in the experiment on RXF 393; 13.7 µM (inactive) in the experiment on M19-MEL; 33.8 µM (inactive) in the experiment with SF-268; 14.5 µM (inactive) in the experiment with UACC-257. The GI50 is 19.8 µM (inactive) in the experiment with SK-MEL-5, 12.2 µM (inactive) in the experiment on NCI-H23 and 24.2 µM (inactive) in the experiment with NCI-H460.
Consider `CSc1nc(NC2OCC(O)C(O)C2O)c(N)c(=O)[nH]1` (configuration not stated), for which the GI50 with RPMI-8226, with SNB-78, in the experiment on OVCAR-3, with HT-29, in the experiment on SNB-75 and in the experiment on SK-MEL-2 was > 100 µM (inactive) each time. In addition, the GI50 in the experiment on DMS-114, in the experiment with SF-539, in the experiment with RXF 393, in the experiment on M19-MEL, in the experiment with SF-268 and in the experiment with UACC-257 was > 100 µM (inactive) in each case. Moreover, the GI50 with SK-MEL-5 was > 100 µM (inactive); with NCI-H23, > 100 µM (inactive); with NCI-H460, > 100 µM (inactive); in the experiment on NCI/ADR-RES it was > 100 µM (inactive); in the experiment with HCT-15, > 100 µM; with OVCAR-5 it was > 100 µM (inactive).
`O=c1c(Cc2c(O)oc3cc(O)ccc3c2=O)c(O)oc2cc(O)ccc12`: the GI50 with OVCAR-3 is > 100 µM (inactive); in the experiment with HT-29, > 100 µM (inactive); with SR, > 100 µM (inactive); in the experiment with SNB-75, 53.5 µM (inactive); with SK-MEL-2 it was > 100 µM (inactive); in the experiment on CAKI-1, > 100 µM (inactive). Moreover, the GI50 with SF-539 is > 100 µM (inactive); in the experiment on RXF 393, > 100 µM (inactive); with SF-268, > 100 µM (inactive); in the experiment on UACC-257, > 100 µM (inactive); with SK-MEL-5, 41.8 µM (inactive); with NCI-H23 it was > 100 µM (inactive). Also, the GI50 with NCI-H460 is > 100 µM (inactive); in the experiment with NCI/ADR-RES, > 100 µM (inactive); with HCT-15 it was > 100 µM; in the experiment with OVCAR-5, > 100 µM (inactive).
On to `O=C(O[C@@H](/C=C/c1ccccc1)P1(=O)N(Cc2ccccc2)[C@H]2CCCC[C@@H]2N1Cc1ccccc1)c1ccccc1`, for which the GI50 in the experiment on RPMI-8226 was 2.29 µM (inactive); in the experiment on OVCAR-3, 3.48 µM (inactive); in the experiment with HT-29 it was 3.08 µM (inactive); in the experiment on SR, 2.86 µM (inactive); in the experiment with SNB-75, 5.6 µM (inactive); in the experiment on SK-MEL-2, 1.85 µM (inactive). In addition, the GI50 with CAKI-1 is 2.66 µM (inactive); with SF-539 it was 4.57 µM (inactive); in the experiment on RXF 393, 2 µM (inactive); with SF-268 it was 5.5 µM (inactive); in the experiment on UACC-257 it was 2.86 µM (inactive); in the experiment with SK-MEL-5, 1.93 µM (inactive). Moreover, the GI50 is 2.96 µM (inactive) in the experiment with NCI-H23; 2.01 µM (inactive) in the experiment with NCI-H460; 3.52 µM (inactive) in the experiment on NCI/ADR-RES; 3.28 µM in the experiment on HCT-15; 3.86 µM (inactive) with OVCAR-5.
Turning to `CCCCOc1ccc(OCCCCCCCCCC[N+](C)(C)C)cc1`, the GI50 with RPMI-8226 was 0.481 µM (active); in the experiment with SNB-78, 2.38 µM (inactive); in the experiment on OVCAR-3 it was 2.1 µM (inactive); in the experiment with HT-29, 0.452 µM (active); in the experiment on SNB-75 it was 2.17 µM (inactive); in the experiment with SK-MEL-2, 2.01 µM (inactive). Besides, the GI50 in the experiment on CAKI-1 was 3.73 µM (inactive); in the experiment on DMS-114 it was 2.05 µM (inactive); with SF-539, 3.24 µM (inactive); with RXF 393, 0.796 µM (active); in the experiment with SF-268, 3.13 µM (inactive); in the experiment on UACC-257, 5.08 µM (inactive). Besides, the GI50 was 1.91 µM (inactive) in the experiment with SK-MEL-5; 1.95 µM (inactive) with NCI-H23; 2.54 µM (inactive) in the experiment on NCI-H460; 58.9 µM (inactive) with NCI/ADR-RES; 14.9 µM with HCT-15; 4.65 µM (inactive) with OVCAR-5.
On to `CCOC(=O)/C(C#N)=C1/SC(C(=O)N/N=C/c2ccc(OC)cc2)=C(N)N1c1ccccc1`, for which the GI50 is 1.71 µM (inactive) in the experiment on RPMI-8226; > 100 µM (inactive) in the experiment on OVCAR-3; 31.3 µM (inactive) in the experiment with HT-29; > 100 µM (inactive) with SR; 0.318 µM (active) in the experiment on SNB-75; 1.16 µM (inactive) with SF-539. The GI50 with M19-MEL was > 100 µM (inactive); in the experiment with SF-268, 97.5 µM (inactive); with UACC-257, 59.4 µM (inactive); in the experiment with SK-MEL-5, 39.4 µM (inactive); in the experiment with NCI-H23, > 100 µM (inactive); in the experiment on NCI-H460, 72.8 µM (inactive). Further, in the experiment with OVCAR-5, the GI50 is > 100 µM (inactive).
Take `COc1ccc(/C=N/N=C(N)N)c(C(=O)O)c1OC`: the GI50 with RPMI-8226, in the experiment with SNB-78, with OVCAR-3, in the experiment on HT-29, with SNB-75 and in the experiment on CAKI-1 was > 100 µM (inactive) in each case. Besides, the GI50 in the experiment with DMS-114, in the experiment with SF-539, in the experiment with RXF 393, in the experiment with SF-268, with UACC-257 and in the experiment on SK-MEL-5 was > 100 µM (inactive) in each case. Besides, the GI50 is > 100 µM (inactive) in the experiment on NCI-H23, > 100 µM (inactive) in the experiment on NCI-H460 and > 100 µM in the experiment on HCT-15.
Regarding `COc1ccc(OC)c(NC(=O)C(=O)C(C(=O)c2ccccc2F)C2OC(=O)c3ccccc32)c1` (configuration not stated), the GI50 with RPMI-8226 is 32.4 µM (inactive); with SNB-78, 36.8 µM (inactive); with HT-29 it was 45.5 µM (inactive); in the experiment on SR, 23.5 µM (inactive); in the experiment on SNB-75 it was 39.7 µM (inactive); with SK-MEL-2 it was 43.1 µM (inactive). In addition, the GI50 with CAKI-1 is 67.8 µM (inactive); in the experiment on DMS-114, 20.8 µM (inactive); in the experiment on SF-539 it was 26.9 µM (inactive); in the experiment on RXF 393, 25.5 µM (inactive); in the experiment on M19-MEL, 29.1 µM (inactive); in the experiment with SF-268, 22.8 µM (inactive). Further, the GI50 in the experiment on UACC-257 is > 100 µM (inactive); in the experiment on SK-MEL-5, 79.1 µM (inactive); with NCI-H23, 57.1 µM (inactive); in the experiment on NCI-H460, 44.8 µM (inactive); in the experiment on HCT-15 it was 62.5 µM; in the experiment on OVCAR-5, 79.4 µM (inactive).
For `CCOC(=O)c1csc(NC(=O)CCN(CC)CC)n1`, the GI50 is 0.0817 µM (active) in the experiment with RPMI-8226; 26.8 µM (inactive) in the experiment with OVCAR-3; 23.8 µM (inactive) in the experiment on HT-29; 21.9 µM (inactive) in the experiment on SR; 28.1 µM (inactive) in the experiment on SNB-75; 55.7 µM (inactive) in the experiment on SK-MEL-2. For the same compound, the GI50 in the experiment with CAKI-1 was 20.5 µM (inactive); with SF-539 it was 26.9 µM (inactive); with RXF 393 it was 49.4 µM (inactive); in the experiment on UACC-257 it was 28.1 µM (inactive); in the experiment on SK-MEL-5 it was 45.8 µM (inactive); with NCI-H23, 64.7 µM (inactive). The GI50 with NCI-H460 was > 100 µM (inactive); in the experiment with NCI/ADR-RES, 40.2 µM (inactive); in the experiment with HCT-15, 27.6 µM; in the experiment on OVCAR-5 it was > 100 µM (inactive).
In the case of `N/C(=C\c1ccc(/C=C(\NC(=O)c2ccccc2)c2nc3c([nH]2)C(=O)c2ccccc2C3=O)cc1)c1nc2c([nH]1)C(=O)c1ccccc1C2=O`, the GI50 with RPMI-8226 was 4.33 µM (inactive); in the experiment on SNB-78, 20.6 µM (inactive); in the experiment with OVCAR-3 it was 13.6 µM (inactive); in the experiment on HT-29 it was 14.7 µM (inactive); in the experiment with SNB-75, 3.65 µM (inactive); in the experiment on CAKI-1 it was 14.3 µM (inactive). Also, the GI50 was 7.55 µM (inactive) in the experiment with DMS-114; 16.6 µM (inactive) in the experiment on SF-539; 11.8 µM (inactive) with RXF 393; 8.47 µM (inactive) in the experiment with SF-268; 17.8 µM (inactive) in the experiment on UACC-257; 16.5 µM (inactive) with SK-MEL-5. Also, the GI50 with NCI-H23 was 14.3 µM (inactive); in the experiment on NCI-H460, 17.5 µM (inactive); with HCT-15, 13.9 µM; in the experiment on OVCAR-5, 18.9 µM (inactive).

The GI50 is the concentration giving 50% growth inhibition.
